# Measurements: patent US20220324835A1 (Nurix Therapeutics, Inc., priority 2018, published 2022)
# Columns and labels:
# T-cell [1] = experiment: CD25 cell surface staining on T-cells co-stimulated with anti-CD3 and anti-CD28 antibody (Biological Example 2); type: cell-based, human; conditions: Homo sapiens, T-cell, read-out: CD25 staining Anti-CD3/Anti-CD28 stimulation; for fold induction at 0.3 µM: 0.3 μM Cbl-b inhibitor; for fold induction at 1 µM: 1 μM Cbl-b inhibitor
# Description: (§1) Methods for experimentally determining increased T-cell activation, increased T-cell proliferation, decreased T-cell exhaustion, and/or decreased T-cell tolerance are well known in the art.
# (§2) Modulation of activity of an immune cell, such as a T-cell, a B cell or a NK cell can be measured by determining a baseline value for a parameter of interest (e.g., cytokine secretion). […] A reference value then is obtained for T-cell activation after contacting or administering said Cbl-b inhibitor. The reference value is compared to the baseline value in order to determine the amount of T-cell activation due to contact or administration of the Cbl-b inhibitor or composition thereof. […] Immune cell activation can be assessed by measuring biological markers of activation such as increased cytokine secretion, increased cell surface expression of activation markers (e.g., cell surface markers), or increased phosphorylation of proteins in a downstream signaling pathway. The fold over baseline value that indicates immune cell activation can be determined for the parameter being tested and the conditions under which the immune cell were treated. For example, for measuring T-cell activation, a baseline value can be obtained from T-cells stimulated with anti-CD3 antibody in combination with anti-CD28 antibody, wherein the cells are not incubated with a Cbl-b inhibitor. […] A positive response for immune cell activation can then be determined by the obtained reference value. […]
# Cbl-b [2] = biological target: T1, Cbl-b (Homo sapiens, UniProt Q13191); experiment: Cbl-b inhibition assay (Cbl-b activity assay, FRET, Biological Example 1; 100 mM NaCl, 60 nM Src kinase); type: biochemical; conditions: upper bound stated in text lists; read-out: IC50 values in the Cbl-b inhibition assay of Biological Example 1
# In short: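 TR-FRET assay using N-terminal biotinylated Avi-tagged Cbl-b bound to streptavidin-terbium, Src kinase for Cbl-b phosphorylation, and UbcH5B irreversibly conjugated to Bodipy-Fluorescein-ubiquitin. Phosphorylated Cbl-b binds UbcH5B-Ub, bringing the fluorophores together; inhibition is read as loss of FRET signal.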
# T-cell [3] = experiment: CD25 cell surface staining on T-cells stimulated with anti-CD3 antibody alone (Biological Example 2); type: cell-based, human; conditions: T-cell, read-out: CD25 staining Anti-CD3 stimulation; for fold induction at 1 µM: 1 μM Cbl-b inhibitor
# Description: as §1
# (§3) Modulation of activity of an immune cell, such as a T-cell, a B cell or a NK cell can be measured by determining a baseline value for a parameter of interest (e.g., cytokine secretion). […] A reference value then is obtained for T-cell activation after contacting or administering said Cbl-b inhibitor. The reference value is compared to the baseline value in order to determine the amount of T-cell activation due to contact or administration of the Cbl-b inhibitor or composition thereof. […] Immune cell activation can be assessed by measuring biological markers of activation such as increased cytokine secretion, increased cell surface expression of activation markers (e.g., cell surface markers), or increased phosphorylation of proteins in a downstream signaling pathway. The fold over baseline value that indicates immune cell activation can be determined for the parameter being tested and the conditions under which the immune cell were treated. For example, for measuring T-cell activation, a baseline value can be obtained from T-cells stimulated with anti-CD3 antibody in combination with anti-CD28 antibody, wherein the cells are not incubated with a Cbl-b inhibitor. […] A positive response for immune cell activation can then be determined by the obtained reference value.
# (§4) In some embodiments, a baseline value can be obtained from T-cells stimulated with anti-CD3 antibody alone, wherein the cells are not incubated with a Cbl-b inhibitor. In some embodiments, a positive response for T-cell activation as measured by cytokine secretion (e.g., IL-2 secretion) by T-cells stimulated with anti-CD3 antibody alone in the presence of a Cbl-b inhibitor is at least 0.1-fold over the baseline value for cytokine secretion (e.g., IL-2 secretion) obtained from T-cells stimulated with anti-CD3 antibody alone in the absence of a Cbl-b inhibitor. In some embodiments, a positive response for T-cell activation as measured by surface marker expression (e.g., CD25 surface marker staining) by T-cells stimulated with anti-CD3 antibody alone in the presence of a Cbl-b inhibitor is at least 0.6-fold over the baseline value for surface marker expression (e.g., CD25 surface marker staining) obtained from T-cells stimulated with anti-CD3 antibody alone in the absence of a Cbl-b inhibitor.
# T-cell [4] = experiment: IL-2 secretion from T-cells stimulated with anti-CD3 antibody alone (Biological Example 2); type: cell-based, human; conditions: T-cell, read-out: IL-2 secretion Anti-CD3 stimulation; for fold induction at 1 µM: 1 μM Cbl-b inhibitor
# Description: as §1, §3, §4
# Cbl-b [5] = biological target: T1, Cbl-b; experiment: Cbl-b activity assay (Cbl-b inhibition assay), TR-FRET of Cbl-b interaction with UbcH5B-Ub; type: biochemical; conditions: assay buffer with 100 mM NaCl, 60 nM Src kinase; read-out: Cbl-b activity IC50
# In short: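 Compound-treated Cbl-b was incubated 1.5 h with Src kinase (60 nM final; 30 nM for asterisked values, which also used 50 mM instead of 100 mM NaCl), 1 mM ATP and 5 mM MgCl2. Binding to fluorescent Ub-loaded UbcH5B (C85K mutant) was then read by TR-FRET after 1 h more.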
# T-cell [6] = experiment: IL-2 secretion from T-cells co-stimulated with anti-CD3 and anti-CD28 antibody (Biological Example 2); type: cell-based, human; conditions: Homo sapiens, T-cell, read-out: IL-2 secretion Anti-CD3/Anti-CD28 stimulation; for fold induction at 0.3 µM: 0.3 μM Cbl-b inhibitor; for fold induction at 1 µM: 1 μM Cbl-b inhibitor
# Description: as §1, §2
# [7] = fold change over baseline (anti-CD3/anti-CD28 stimulated T-cells without inhibitor)
# [8] = Homo sapiens, fold change over baseline (anti-CD3/anti-CD28 stimulated T-cells without inhibitor)
# [9] = fold change over baseline, primary human total T-cells
# [10] = fold change over baseline, 4 μM Cbl-b inhibitor, primary human total T-cells
# [11] = fold change over baseline, 8 μM Cbl-b inhibitor, primary human total T-cells
# T1 sequence (Q13191 36-427): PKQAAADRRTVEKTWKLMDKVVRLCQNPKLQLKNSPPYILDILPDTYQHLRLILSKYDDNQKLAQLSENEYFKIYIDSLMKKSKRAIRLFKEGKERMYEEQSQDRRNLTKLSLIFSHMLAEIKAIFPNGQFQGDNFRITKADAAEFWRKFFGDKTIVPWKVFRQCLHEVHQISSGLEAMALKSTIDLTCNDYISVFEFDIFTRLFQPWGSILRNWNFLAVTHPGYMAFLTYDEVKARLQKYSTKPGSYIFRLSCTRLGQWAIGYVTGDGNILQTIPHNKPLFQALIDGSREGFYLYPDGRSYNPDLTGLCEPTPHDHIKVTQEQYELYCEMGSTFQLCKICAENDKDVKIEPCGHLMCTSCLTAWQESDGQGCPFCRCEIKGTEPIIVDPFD
SMILES,fold induction at 0.3 µM (T-cell [1]; [7]),fold induction at 1 µM (T-cell [1]; [7]),IC50 (Cbl-b [2]),fold induction at 1 µM (T-cell [3]; [8]),fold induction at 1 µM (T-cell [4]; [8]),IC50 (Cbl-b [5]),fold induction at 0.3 µM (T-cell [6]; [7]),fold induction at 1 µM (T-cell [6]; [7]),fold induction at 0.3 µM (T-cell [1]; [9]),fold induction at 1 µM (T-cell [1]; [9]),fold induction at 4 µM (T-cell [1]; [10]),fold induction at 1 µM (T-cell [3]; [9]),fold induction at 8 µM (T-cell [3]; [11]),fold induction at 1 µM (T-cell [4]; [9]),fold induction at 8 µM (T-cell [4]; [11]),fold induction at 0.3 µM (T-cell [6]; [9]),fold induction at 1 µM (T-cell [6]; [9]),fold induction at 4 µM (T-cell [6]; [10])
"CO[C@@H]1CCN(Cc2cc3c(c(C(F)(F)F)c2)CN(c2cccc(C4(Cc5nncn5C)COC4)c2)C3=O)C[C@@H]1F (relative stereo) [Example 621, 6-(((cis)-3-fluoro-4-methoxypiperidin-1-yl)methyl)-2-(3-(3-((4-methyl-4H-1,2,4-triazol-3-yl)methyl)oxetan-3-yl)phenyl)-4-(trifluoromethyl)isoindolin-1-one]",1.31 to 1.5,1.31 to 1.5,≤ 100 nM,> 1,> 0.201,< 100 nM,> 7.5,> 7.5,–,–,–,–,–,–,–,–,–,–
"C[C@@H]1CCN(Cc2cc3c(c(C(F)(F)F)c2)CN(c2cccc(C4(Cc5nncn5C)COC4)c2)C3=O)C[C@H]1F (relative stereo) [Example 631, 6-((trans-3-fluoro-4-methylpiperidin-1-yl)methyl)-2-(3-(3-((4-methyl-4H-1,2,4-triazol-3-yl)methyl)oxetan-3-yl)phenyl)-4-(trifluoromethyl)isoindolin-1-one]",1.31 to 1.5,1.51 to 1.75,≤ 100 nM,> 1,> 0.201,< 100 nM,> 7.5,> 7.5,–,–,–,–,–,–,–,–,–,–
"Cc1c[nH]nc1C[C@H](C)c1cccc(N2Cc3c(cccc3C(F)(F)F)C2=O)c1 (single isomer, unassigned) [Compound 270a]",–,–,≤ 1000 nM,–,–,301 to 1000 nM,–,–,1.01 to 1.3,1.01 to 1.3,1.01 to 1.3,0.601 to 0.8,0.801 to 1,0.101 to 0.15,0.151 to 0.2,1.01 to 2.5,1.01 to 2.5,1.01 to 2.5
